SMILES | melting point [°C]
CCCCCCCCCCCCCCCCCCOc1cc(OCCCOc2ccccc2OCc2ccccc2)cc(C(=O)OCc2ccccc2)c1 | 49 to 50
CC(C)c1cccc(C(C)C)c1NC(=O)C1CCCC(CCCCCOc2ccccc2)(c2ccccc2)C1=O (configuration not stated) | 150 to 153
COc1ccc(C(=NOC(C)=O)c2cc(F)ccc2F)c(O)c1 | 110 to 111
CCc1cccc(CC)c1NC(=O)C(Cc1ccccc1)NC(C)=O (configuration not stated) | 205 to 206
CC(C)c1cccc(C(C)C)c1NC(=O)NC1COc2ccccc2C1 (configuration not stated) | 186 to 188
CCOC(=O)C(=CC=C(O)C(=O)O)Sc1ccc2ccccc2c1 | 182
C=CCNc1ccc(N)cc1[N+](=O)[O-] | 80 to 83
CCCC(O)P(=O)(O)OCCCN (configuration not stated) | 188
COc1ccc(-c2nc3cc(Cl)ccc3o2)cc1OC | 142 to 145
CC(=N)Nc1cccc(Br)c1 | 208 to 210
CCc1nn2c(N3CCNCC3)cc(C)nc2c1S(=O)(=O)c1ccccc1 | 150 to 151
CN(C(=O)c1ccnc(Cl)c1)c1ccccc1N1CCN(C(=O)OC(C)(C)C)CC1 | 59 to 61
CN1CCN(C(=O)c2ccc3n2Cc2ccc(C(=O)O)cc2N(C(=O)c2ccc(C4CCCCC4)cc2)C3)CC1 | 195 to 210
CCCCN(CC)C(=O)c1cnc2c3c(ccc2c1)C(=O)C(C(=O)O)C=N3 (configuration not stated) | 236 to 237
CC(C)CCCCCCCCCCCC(=O)Nc1ccc(O)c(O)c1 | 85 to 86
Cn1ncc2ccc(OCCCCl)cc2c1=O | 252 to 253
Cn1nc2c(N)nc3ccccc3c2c1CC(C)(C)NC(=O)c1ccccc1 | 194 to 196
COc1ccc(OC)c2c1C[C@@H](O)[C@@H](N)C2 (relative stereo) | 193 to 196
CC(c1ccccc1)N(C=O)C(C#N)C=O (single isomer, unassigned; (+)) | 245
O=c1ccc2ccc(OCCCCN3CCN(c4cccc5cc(Cl)ccc45)CC3)nc2[nH]1 | 208 to 209
FC(F)(F)c1ccc(Cl)c(CN2CCNc3ncc(I)cc32)c1 | 120 to 125
Cc1c(C#N)cnc(N)c1C#N | 222 to 223
O=Cc1ccc(C(=O)Nc2ccc(C(F)(F)F)cc2)cc1 | 173
CCOP1(=S)OCc2cc(C)cnc2O1 (configuration not stated) | 54 to 55
CCCCOC(=O)CN(C(=O)C(F)(F)F)C(N1CCOCC1)P(=O)(O)OSc1ccc(Cl)cc1 (configuration not stated) | 79.5 to 81

SMILES | melting point [°C]
C[Si](C)(C)C#CC1(O)CCCCC1 | 72 to 73
CCOc1ccc2c(c1)n(C(C)(C)CC(C)(C)C)c(=O)n2S(=O)(=O)c1ccc(NC(=O)N(CC)CC)cc1OC | 225
Cc1cc(C)n(C)c(=O)n1 | 58 to 60
CC(C)c1ccc(N(Cc2ccc(N(C)C)cc2)C(=O)C2CCOc3c(C#N)cccc32)cc1 (configuration not stated) | 179
CCOc1ccccc1C(=O)Nc1cccc(C)c1C(N)=O | 166 to 168
Cn1c(C(F)(F)F)ccc(-c2cc([N+](=O)[O-])c(Cl)cc2F)c1=O | 139 to 140
CON=C(C)c1ccc(N2CC(CO)OC2=O)cc1 (configuration not stated) | 149 to 150
CCCCCOc1ccc(-c2ncc(C#N)c(Cl)n2)cc1 | 140 to 142
CCCCCCC(C(=O)O)n1ccc2cc(-c3ccccc3-c3nn[nH]n3)ccc21 (configuration not stated) | 105 to 115
CCCN1CC(NS(=O)(=O)N(CC)CC)CC2c3cccc4[nH]cc(c34)CC21 (configuration not stated) | 160 to 162
COc1c(C(=O)O)nnn1Cc1ccccc1Cl | 130 to 135
Cc1nc(-c2ccccc2Cl)sc1-c1ccccc1 | 63 to 65
CCC(=O)Nc1cccc(C(=O)C=CN(C)C)c1 | 106 to 108
Brc1ccc2c(c1)CC(Cc1ccccc1)O2 (configuration not stated) | 70 to 72
CCC1CC2C3CCC4=CC(=O)CCC4=C3C=CC2(CC)C1O (configuration not stated) | 184 to 187
CCN1CCC2(CC1)c1ccccc1Sc1c(O)cccc12 | 223 to 225
COc1ccc(NC(=N)c2cccs2)cc1CO | 191 to 192
CC1Cc2c(N3CCCC(O)C3)c(F)cc3c(=O)c(C(=O)O)cn1c23 (configuration not stated) | 251 to 253
CC(C)n1c(=O)n(C(=O)NC2CCN(C)CC2)c2ccccc21 | 204 to 205
NC(=O)c1[nH]c2ccccc2c1-c1ccc(NC(=O)Nc2ccc(C(F)(F)F)c(Cl)c2)cc1 | 168 to 170
O=C(CBr)CCc1ccccc1 | 39 to 40
Cc1cc2c(OCc3ccc(-c4nnn[nH]4)cc3)cccc2o1 | 196 to 197
O=C=Nc1ccc2c(c1)C(=O)CC2 | 72
CSCc1cc(C(C)=O)c(O)cc1OCCCCCCC#N | 78
CC1(C2CCCC2)Cc2cc(O)c(Cl)c(Cl)c2C1=O (configuration not stated) | 190 to 194

Now from value to compound:

melting point [°C] | SMILES
84 to 86 | OCC1C(c2ccc(F)cc2)CCC12C=Cc1ccccc12 (configuration not stated)
72 to 74 | CC(C)(C=O)Cc1cc(C(C)(C)C)c(O)c(C(C)(C)C)c1
152 to 154 | Nc1cccc(-c2ccc(CCN3CCN(C(=O)c4ccco4)CC3)cc2)n1
125 to 127 | CC(CC(C)C1CCC2C3C(O)CC4CC(O)CCC4(C)C3CCC12C)C(=O)O (configuration not stated)
218 to 220 | COc1cc(CC(=O)O)ccc1NC(=O)Nc1ccccc1C(F)(F)F
150 to 151 | CCOC(=O)/C=C/c1ccc2oc(Cc3nc(-c4ccccc4)oc3C)cc2c1
174 to 176 | COCc1ccoc1-c1cc(-n2c(N)nc3ccccc32)ccc1C
195 | CCOC(=O)c1ccccc1N(CC(=O)N(C)c1ccccc1)C(=O)CNC(=O)Nc1cccc(C(C)O)c1 (configuration not stated)
102 to 104 | COC(=O)COc1cccc(CCNC(=O)/C=C/c2cccnc2)c1
165 to 166 | Cn1c(-c2ccccc2)c(-c2ccc(C(=O)O)cc2)c2ccccc21
85 to 86 | CN(c1ccc(Cl)cc1[N+](=O)[O-])S(=O)(=O)c1ccc(Cl)s1
145 to 148 | Cc1ccc(C)c(-c2cc(CO)ccc2CO)c1
78 to 78.5 | CCOC(=O)C1(O)CC(C(F)(F)F)=NN1c1ncccc1Cl (configuration not stated)
123 to 125 | CNS(=O)(=O)CCc1ccc2[nH]cc(CC(=O)O)c2c1
124 | CCCCCCCCOc1ccc(-c2ccc(C(C)O)cc2)cc1 (single isomer, unassigned; (-))
300 to 302 | Cc1cc(C(=N)NO)ccc1-c1ccc(-c2nc3cc(C(=N)NO)ccc3[nH]2)cc1
92 to 94 | CC(C)COC(=O)N1CCN(C2=C(Cl)C(=O)c3ccccc3C2=O)CC1
151 to 153 | CCC(=O)SCC(Cc1ccccc1)C(=O)Nc1cc(C)cc(C(=O)O)c1 (configuration not stated)
210 to 212 | CC(C)c1cccc(F)c1NC(=S)N/N=C/c1ccc(-c2ncn(-c3ccc(OC(F)(F)F)cc3)n2)cc1
56 to 58 | Cc1cccc(OC2=NS(=O)(=O)N=C(N)N2C(C)C)c1
153 to 156 | CSCC[C@H](N)C(=O)NC(=O)C(CS)Cc1ccccc1 (some centres not stated)
> 250 | COc1ccc2nc(-c3nc(N)nc(N)n3)sc2c1
234 to 235 | CC(=O)NC[C@H]1CN(c2ccc(C(=O)c3cnc4ccc(Cl)cn34)cc2)C(=O)O1
164 to 165 | C=CCn1c(Cc2ccccc2)c(CC)c(=O)[nH]c1=O
108 | O=S(=O)(C=Cc1ccc(F)cc1)Oc1ccccc1
250 to 254 | COc1ccc(-c2ccc(C(=O)O)cc2)cc1

melting point [°C] | SMILES
70 to 73 | CCCCNS(=O)(=O)CC(=O)[C@@H]1OC(C)(C)N(C(=O)OC(C)(C)C)[C@H]1CC1CCCCC1
166 | CC(=O)OC1CSC(Oc2cccnc2-c2cccs2)C(OC(C)=O)C1OC(C)=O (configuration not stated)
183 to 184 | O=C(Nc1ccc(CN2C(=O)[C@H]3CCC[C@H]3Nc3ccccc32)cc1)Oc1ccccc1 (relative stereo)
83 to 85 | CCCc1ccc(S(=O)(=O)c2ccccc2)cc1
146 to 147 | CC(C)c1nn(-c2nc3ccccc3s2)c(-c2ccc(F)cc2)c1Br
144 to 145 | O=C(O)CCC(=NOCc1ccc(OCc2coc(-c3ccccc3)n2)cc1)c1ccccc1
75 to 76 | CNc1nc(-c2ccc(F)cc2)cc(C(C)C)n1
187 to 189 | COc1ccc(/C=C(/C(=O)O)c2cc(OC)c(OC)c(OC)c2)cc1
74 to 75 | CCCCCCCCCCc1ccc(NC(=O)c2cccc(-c3ccccc3)c2O)cc1
62 to 64 | CCc1coc2c(Cc3ccc(C(C)C)cc3)c(C)cc(C)c12
132 to 134 | Cc1cccc2ncc(C(=O)N3CCCC3)c(=O)n12
150 to 151 | CCOc1cccc(C(=O)N2CCc3cc(O)ccc3C2)c1
170 to 172 | COC(=O)CC[C@H](NC(=O)c1ccc(CCn2cnc3nccc-3c2NO)cc1)C(=O)OC
182 to 183 | O=C(O)CNc1ccc(Cl)cc1C(=O)O
128 to 130 | CC(C)(C)[Si](C)(C)OC(=O)O[Si](C)(C)C(C)(C)C
177 to 179 | Cc1noc(-c2ccc(C(=O)N3Cc4cccn4Cc4ccccc43)cc2)n1
163 to 166 | N#Cc1ccc(N(CCOc2ccc(OCc3ccccc3)c(Br)c2)n2cnnc2)cc1
74 to 76 | CCOC(=O)CCCCn1c(C)cn(N=Cc2cccnc2)c1=O
225 to 226 | O=C(CN1CS(=O)CC1=O)N1CCN(C(c2ccccc2)c2ccccc2)CC1 (configuration not stated)
178 to 181 | N#Cc1nc(Cl)c(Cl)c(NN)c1Cl
91 to 92 | O=C1CCCCCC1=CC(=O)c1ccccc1
202 to 204 | Cc1c(NC(=O)c2ccc(-c3ccc(F)cc3)cc2)ccc2cc(CN3CCC(CCCC(=O)N(C)C)CC3)cnc12
92 to 105 | Cc1cccc(C(CNc2ncnc3c2ncn3C2OC(CO)C(O)C2O)c2ccccc2)c1 (configuration not stated)
210 to 214 | COC(=O)C1=C(C)NC(N)=C(C#N)C1c1ccc(C(F)(F)F)cc1 (configuration not stated)
161 | NC(=O)C(c1ccc(Cl)cc1)c1ccc(-n2ncc(=O)[nH]c2=O)cc1Cl (configuration not stated)
154 to 162 | CC(=O)OCC(=O)C1C(C)CC2C3CC(F)C4=CC(=O)C=CC4(C)C34OC4CC21C (configuration not stated)
